Laboratory results published in patent publication US11214803B2, “Modulators of YAP1 expression” (Ionis Pharmaceuticals, Inc., priority 2019, dated 2022).
Strand notation (5' to 3'): a small letter for the sugar, then the base; units joined by * are phosphorothioate-linked, units joined directly phosphodiester-linked; [ ] holds rarer units or linkages, { } end groups; capitals alone tell only the bases. k = constrained ethyl (cEt); [5mC] = 5-methylcytosine; d = 2'-deoxy (DNA)

These substances were tested on Yap1 mRNA (assay: Antisense inhibition of human Yap1 in A-431 cells by cEt gapmers, single dose (Example 3, RTS36584)). Details: Table 8; A-431 cells, 5,000 cells per well, free uptake, 2,000 nM, approximately 48 hours; RTS36584; normalized to RIBOGREEN; Yap1 mRNA relative to untreated control cells.
Type: cell-based
Method in brief: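 A-431 cells (5,000/well) took up the 3-10-3 cEt gapmers by free uptake at 2,000 nM for about 48 h. Yap1 mRNA was measured by RT-qPCR with primer probe set RTS36584, normalized to RiboGreen total RNA, and given as % of untreated control.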

In the case of “958363 (antisense kT*kG*kA*dG*d[5mC]*dT*d[5mC]*dG*dA*dA*d[5mC]*dA*dT*kG*k[5mC]*kT) [Compound 958363]”, the “YAP1 (% UTC)” value is reported as 70 % UTC.

Same assay, conditions: Table 9; A-431 cells, 5,000 cells per well, free uptake, 2,000 nM, approximately 48 hours; RTS36584; normalized to RIBOGREEN; Yap1 mRNA relative to untreated control cells

First: 958771 (antisense k[5mC]*kT*kA*d[5mC]*dA*dG*dA*d[5mC]*dG*dA*dA*dT*dT*k[5mC]*k[5mC]*kA) [Compound 958771]
Second: 958786 (antisense kT*kA*kT*dG*dT*d[5mC]*d[5mC]*dT*dA*d[5mC]*dT*dT*dT*k[5mC]*k[5mC]*k[5mC]) [Compound 958786]
The “YAP1 (% UTC)” value of the first is higher: 18 % UTC for the first, 10 % UTC for the second.

Going from “958781 (antisense kG*kT*k[5mC]*dA*dT*d[5mC]*dT*dA*dT*dG*dT*dG*dT*k[5mC]*k[5mC]*kT) [Compound 958781]” to “958686 (antisense k[5mC]*kG*k[5mC]*dA*dA*dT*dA*dT*dA*dG*dT*d[5mC]*dT*kA*kT*kA) [Compound 958686]”, the “YAP1 (% UTC)” value falls from 6 % UTC to 4 % UTC.

First: 958486 (kT*kT*kA*dG*dA*dG*d[5mC]*d[5mC]*dA*dA*d[5mC]*dT*dG*kT*kG*kA; antisense) [Compound 958486]
Second: 958456 (antisense kG*kG*k[5mC]*d[5mC]*dA*dG*dA*dG*dA*d[5mC]*dT*dA*d[5mC]*kT*k[5mC]*k[5mC]) [Compound 958456]
The “YAP1 (% UTC)” value of the first is lower: 9 % UTC for the first, 90 % UTC for the second.

In the case of “958506 (kG*k[5mC]*kA*dG*dA*dT*dA*dA*dT*d[5mC]*dG*dA*dG*kA*kT*kT; antisense) [Compound 958506]”, the “YAP1 (% UTC)” value is reported as 6 % UTC.

Same assay, conditions: Table 10; A-431 cells, 5,000 cells per well, free uptake, 2,000 nM oligonucleotide, approx. 48 hours; primer probe set RTS36584; Yap1 mRNA normalized to RIBOGREEN, percent of untreated control

Compared with “958672 (kG*kA*kA*d[5mC]*dT*dT*dA*dG*dT*dT*d[5mC]*d[5mC]*d[5mC]*kT*kT*k[5mC]; antisense) [Compound 958672]”, “958762 (antisense kG*kA*kT*dT*dA*dG*dA*dG*dG*dA*d[5mC]*dT*d[5mC]*kA*kT*kT) [Compound 958762]” is lower in “YAP1 (% UTC)” value: 67 % UTC for the first, 16 % UTC for the second.

In the case of “958747 (antisense kG*kT*kA*dA*dA*dG*dA*dG*dG*dG*dT*dG*dA*k[5mC]*kA*kT) [Compound 958747]”, the “YAP1 (% UTC)” value is reported as 106 % UTC.

Same assay, conditions: Table 11; A-431 cells, 5,000 cells per well, free uptake, 2,000 nM oligonucleotide, approx. 48 hours; primer probe set RTS36584; Yap1 mRNA normalized to RIBOGREEN, percent of untreated control

Going from “958508 (kG*kA*kG*dA*dG*d[5mC]*dA*dG*dA*dT*dA*dA*dT*k[5mC]*kG*kA; antisense) [Compound 958508]” to “958768 (antisense kG*kT*kG*d[5mC]*dA*dA*dG*d[5mC]*dA*dG*dG*dT*dT*k[5mC]*k[5mC]*k[5mC]) [Compound 958768]”, the “YAP1 (% UTC)” value rises from 7 % UTC to 17 % UTC.

Going from “958793 (antisense k[5mC]*k[5mC]*kG*d[5mC]*dA*dT*dT*dG*d[5mC]*d[5mC]*dT*dA*dA*kG*kA*kG) [Compound 958793]” to “958503 (kA*kA*k[5mC]*d[5mC]*dA*dT*d[5mC]*d[5mC]*d[5mC]*dA*dA*dG*d[5mC]*kT*kA*k[5mC]; antisense) [Compound 958503]”, the “YAP1 (% UTC)” value rises from 9 % UTC to 15 % UTC.

Going from “958723 (antisense kA*kA*k[5mC]*d[5mC]*d[5mC]*dA*d[5mC]*dT*dA*dA*dA*dA*d[5mC]*k[5mC]*kG*kG) [Compound 958723]” to “958598 (k[5mC]*k[5mC]*k[5mC]*dA*dA*dT*dG*d[5mC]*dT*dA*d[5mC]*d[5mC]*d[5mC]*kA*kA*kT; antisense) [Compound 958598]”, the “YAP1 (% UTC)” value falls from 63 % UTC to 4 % UTC.

First: 958783 (antisense kT*kG*kA*dT*d[5mC]*dT*dG*dA*dT*dG*d[5mC]*dT*dT*kG*k[5mC]*kT) [Compound 958783]
Second: 958548 (kG*kA*k[5mC]*dA*d[5mC]*dA*dT*dA*d[5mC]*dT*d[5mC]*dT*dA*kG*kT*kT; antisense) [Compound 958548]
The “YAP1 (% UTC)” value of the first is higher: 35 % UTC for the first, 21 % UTC for the second.

Same assay, conditions: Table 12; A-431 cells, 5,000 cells per well, free uptake, 2,000 nM modified oligonucleotide, approx. 48 hours; RTS36584; normalized to RIBOGREEN; Yap1 mRNA relative to untreated control cells

Going from “958779 (antisense kT*k[5mC]*kG*dA*dA*dT*dA*dT*dA*dG*dA*dG*dG*k[5mC]*k[5mC]*kT) [Compound 958779]” to “958549 (kT*kG*kT*dA*dG*dA*d[5mC]*dA*d[5mC]*dA*dT*dA*d[5mC]*kT*k[5mC]*kT; antisense) [Compound 958549]”, the “YAP1 (% UTC)” value falls from 80 % UTC to 8 % UTC.

Compared with “958699 (antisense kG*kA*k[5mC]*dT*dA*dG*dA*dA*dA*dG*dA*dT*d[5mC]*kA*kT*k[5mC]) [Compound 958699]”, “958454 (antisense kG*kG*kA*dA*dT*dG*dA*dG*d[5mC]*dT*d[5mC]*dG*dA*kA*k[5mC]*kA) [Compound 958454]” is lower in “YAP1 (% UTC)” value: 20 % UTC for the first, 3 % UTC for the second.

Same assay, conditions: Table 13; A-431 cells, 5,000 cells per well, free uptake, 2,000 nM modified oligonucleotide, approx. 48 hours; RTS36584; normalized to RIBOGREEN; Yap1 mRNA relative to untreated control cells

First: 958595 (k[5mC]*k[5mC]*kA*d[5mC]*dA*dT*d[5mC]*dA*dA*dG*dG*d[5mC]*dT*kA*kT*kG; antisense) [Compound 958595]
Second: 958475 (antisense k[5mC]*k[5mC]*kG*dG*dT*dG*d[5mC]*dA*dT*dG*dT*dG*dT*k[5mC]*kT*k[5mC]) [Compound 958475]
The “YAP1 (% UTC)” value of the first is lower: 8 % UTC for the first, 37 % UTC for the second.

Same assay, conditions: Table 26; Yap1 mRNA by 3-10-3 cEt gapmers targeting SEQ ID NO.: 1, and 2; percent of untreated control

First: 1075212 (k[5mC]*kA*kA*dT*dA*dA*dA*dG*dG*dG*dT*d[5mC]*d[5mC]*kT*kA*kA; antisense) [compound 1075212]
Second: 1075500 (kT*kA*kA*dA*dT*dT*dA*dA*dG*d[5mC]*d[5mC]*dA*dA*k[5mC]*kA*k[5mC]; antisense) [compound 1075500]
The “YAP1 (% UTC)” value of the first is higher: 76 % UTC for the first, 26 % UTC for the second.

Same assay, conditions: Table 27; Yap1 mRNA by 3-10-3 cEt gapmers targeting SEQ ID NO.: 1, and 2; percent of untreated control

Compared with “1075629 (antisense kG*k[5mC]*k[5mC]*dG*d[5mC]*dA*dA*dA*dA*dT*dA*dT*dT*kA*kA*kT) [compound 1075629]”, “1075341 (antisense kG*k[5mC]*kT*dG*dA*dA*d[5mC]*dA*dA*dT*d[5mC]*dT*d[5mC]*k[5mC]*k[5mC]*kG) [compound 1075341]” is lower in “YAP1 (% UTC)” value: 100 % UTC for the first, 31 % UTC for the second.

Same assay, conditions: Table 28; Yap1 mRNA as percent of untreated control; 3-10-3 cEt gapmers targeting SEQ ID NO.: 1, and 2

Going from “1075182 (kG*kA*kT*dA*dT*dT*dA*dT*dA*dT*dT*dA*d[5mC]*kT*kA*k[5mC]; antisense) [compound 1075182]” to “1074894 (antisense kT*kG*k[5mC]*dT*dG*dA*dA*dG*dT*dT*dT*dA*dG*k[5mC]*k[5mC]*kT) [compound 1074894]”, the “YAP1 (% UTC)” value rises from 61 % UTC to 79 % UTC.

First: 1076334 (antisense kA*k[5mC]*k[5mC]*dT*dA*dT*dA*dA*dG*dG*dA*dA*dT*kG*kG*k[5mC]) [compound 1076334]
Second: 1075150 (kA*kG*k[5mC]*dG*dG*dA*dA*dA*dA*dA*dA*d[5mC]*dA*k[5mC]*k[5mC]*kT; antisense) [compound 1075150]
The “YAP1 (% UTC)” value of the first is higher: 108 % UTC for the first, 35 % UTC for the second.

Same assay, conditions: Table 29; Yap1 mRNA as percent of untreated control; 3-10-3 cEt gapmers targeting SEQ ID NO.: 1, and 2

First: 1075919 (antisense kT*k[5mC]*kT*dT*dA*dA*dA*d[5mC]*dT*dA*dA*d[5mC]*dT*kG*kT*kT) [compound 1075919]
Second: 1075823 (kT*kA*kT*dT*dA*dG*dA*dG*dG*dT*dT*d[5mC]*d[5mC]*kA*kG*kG; antisense) [compound 1075823]
The “YAP1 (% UTC)” value of the first is higher: 78 % UTC for the first, 30 % UTC for the second.

Compared with “1076463 (kG*kA*kT*dT*dA*dG*dT*dA*dA*d[5mC]*dA*d[5mC]*dT*kG*kA*kT; antisense) [compound 1076463]”, “1075631 (antisense k[5mC]*k[5mC]*k[5mC]*dT*dA*dT*dA*dA*d[5mC]*d[5mC]*dA*dA*dA*kT*kG*k[5mC]) [compound 1075631]” is higher in “YAP1 (% UTC)” value: 38 % UTC for the first, 104 % UTC for the second.

Same assay, conditions: Table 34; Yap1 mRNA as percent of untreated control; 3-10-3 cEt gapmers targeting SEQ ID NO: 1 and 2; single dose

Compared with “1076020 (k[5mC]*k[5mC]*k[5mC]*d[5mC]*dA*dA*d[5mC]*dA*d[5mC]*dT*dA*dA*dT*kA*kG*kG; antisense) [compound 1076020]”, “1074772 (kA*kG*kT*dT*dA*dA*dA*dA*dT*d[5mC]*dT*dT*dA*kT*k[5mC]*k[5mC]; antisense) [compound 1074772]” is higher in “YAP1 (% UTC)” value: 60 % UTC for the first, 80 % UTC for the second.

Going from “1075892 (antisense k[5mC]*kA*k[5mC]*d[5mC]*dA*dA*dT*dA*d[5mC]*d[5mC]*dA*dA*dA*kG*kT*k[5mC]) [compound 1075892]” to “1074900 (antisense kA*kT*kT*dA*dA*d[5mC]*dT*dT*dT*dT*dG*dG*dG*k[5mC]*kA*kA) [compound 1074900]”, the “YAP1 (% UTC)” value falls from 54 % UTC to 40 % UTC.

For “1074740 (kG*kG*kA*d[5mC]*dT*d[5mC]*dT*dT*dA*dG*dG*dT*d[5mC]*kT*k[5mC]*k[5mC]; antisense) [compound 1074740]”, the “YAP1 (% UTC)” value was 75 % UTC.

Same assay, conditions: Table 35; Yap1 mRNA as percent of untreated control; 3-10-3 cEt gapmers targeting SEQ ID NO: 1 and 2; single dose

Compared with “1074133 (kG*k[5mC]*kG*dG*d[5mC]*d[5mC]*d[5mC]*d[5mC]*dG*d[5mC]*dA*dT*d[5mC]*k[5mC]*k[5mC]*k[5mC]; antisense) [compound 1074133]”, “1076437 (kG*kA*kA*dG*dA*dA*dT*dA*dG*d[5mC]*dA*dT*d[5mC]*kT*kG*kA; antisense) [compound 1076437]” is lower in “YAP1 (% UTC)” value: 101 % UTC for the first, 19 % UTC for the second.

Going from “1075541 (kG*k[5mC]*kT*d[5mC]*dA*dA*dA*dA*d[5mC]*dT*dG*dA*d[5mC]*kA*kT*kA; antisense) [compound 1075541]” to “1075669 (antisense kA*kA*kA*dT*dT*dA*dT*dT*dG*dG*dT*dG*dA*k[5mC]*kA*k[5mC]) [compound 1075669]”, the “YAP1 (% UTC)” value rises from 47 % UTC to 70 % UTC.
